Measurements reported in patent publication US9649319B2, “Process for manufacturing sterile brinzolamide ophthalmic suspension” (INDOCO REMEDIES LIMITED, priority 2012, dated 2017).

Experiment: Related Substance data of Brinzolamide after sterilization (Gamma irradiation vs Dry heat sterilization)
Assay type: physicochemical
Conditions: for Impurities: Any individual impurity / Impurities: Related Compound B / Impurities: Related Compound C / Impurities: Related Compound D: Limit NMT 0.3%; for Impurities: Total: Limit NMT 1.0%
Procedure: The active pharmaceutical ingredient according to the present invention after Dry Heat Sterilization will essentially contain the same physico-chemical properties, its chemical purity and physical form as the starting material from which it is prepared. The degradation, especially chemical degradation caused by the present sterilization process is negligible. A table of comparison for Related Substance data of Brinzolamide after sterilization by Gamma irradiation and Dry heat sterilization is presented below.

[1] = after Gamma irradiation sterilization

Impurities: Any individual impurity (after Dry Heat Sterilization): 0.09%
Impurities: Related Compound B (after Dry Heat Sterilization): 0.01%
Impurities: Related Compound C (after Dry Heat Sterilization): 0.06%
Impurities: Related Compound D (after Dry Heat Sterilization): 0.01%
Impurities: Total (after Dry Heat Sterilization): 0.43%
Impurities: Any individual impurity [1]: 0.73%
Impurities: Related Compound B [1]: 0.4%
Impurities: Related Compound C [1]: 0.06%
Impurities: Related Compound D [1]: 0.01%
Impurities: Total [1]: 1.98%
SMILES: CCN[C@H]1CN(CCCOC)S(=O)(=O)c2sc(S(N)(=O)=O)cc21 [Brinzolamide, R 4-ethylamino-3,4-dihydro-2-(3-methoxy)propyl-2H-thieno[3,2-e]-1,2-thiazin-6-sulfonamide 1,1 dioxide]
